Laboratory results: article PMC7438908, “Antimicrobial Peptide Reverses ABCB1-Mediated Chemotherapeutic Drug Resistance” (Frontiers in Pharmacology, 2020)
Entries after “also recorded” stand apart in the source; their conditions may differ. Read-outs that look alike come from different tables or passages of the source. Where no end group is shown, it is not given here.

Columns and labels:
[1] = system: KB-3-1 cells; test: MTT reversal assay, parental KB-3-1; assay type: cell-based, human; conditions: no modulator, mean ± SD of at least three independent experiments in triplicate, read-out: IC50 of anticancer drug alone
Description: (§1) Therefore, we used KB-C2 and its parental cell line KB-3-1 in this study. […] All the cell lines were cultured in DMEM containing 1% penicillin/streptomycin and 10% FBS at 37°C with 5% CO2. All drug-resistant cell lines were cultured in drug-free medium for more than 2 weeks prior to their use.
(§2) Briefly, 5×10^3 cells per well were evenly seeded in 96-well microplates overnight. For the cytotoxicity assay, peptides and positive control of known substrate anticancer drugs were added in a designated concentration gradient. For the reversal assay, peptides and positive control agents were added 2 h before the addition of anticancer drugs within the specified concentration gradient. The plates were incubated in a culture condition for 68 h followed by the addition of 20 μL MTT solution (4 mg/mL) and further incubation of 4 h. After aspirating the culture medium and MTT solution, the formazan crystals were dissolved with 100 μL DMSO. The absorbance was determined at 570 nm with the accuSkan GO UV/Vis Microplate Spectrophotometer (Fisher Sci., Fair Lawn, NJ).

[2] = system: HEK293/pcDNA3.1 cells; test: MTT reversal assay, HEK293/pcDNA3.1; assay type: cell-based; conditions: no modulator, mean ± SD of at least three independent experiments in triplicate, read-out: IC50 of anticancer drug alone
Description: as §1, §2

[3] = system: HEK293/ABCB1 cells; test: MTT reversal assay, transfected HEK293/ABCB1; assay type: cell-based; conditions: HEK293/ABCB1, read-out: IC50 of anticancer drug alone
[4] = system: KB-C2 cells (ABCB1-overexpressing); test: MTT reversal assay, drug-selected ABCB1-overexpressing KB-C2; assay type: cell-based, human
Description: as §1, §2

[5] = system: ABCB1 in KB-C2 cells; test: [3H]-paclitaxel efflux, KB-C2; assay type: cell-based, human; conditions: without inhibitor treatment, 2 h
Description: (§3) Drug accumulation and efflux assays were performed as previously described ([Fan et al., 2018]). For the drug accumulation assay, KB-C2 and KB-3-1 cells were seeded at 1×10^4 cells per well into 24-well plates and incubated at 37°C overnight. After cells were incubated in the presence or absence of peptide HX-12C and positive reversal agent for 72 h, the medium was replaced by medium containing 5 μM [^3H]-paclitaxel with peptide HX-12C or positive reversal agent. The drug medium was discarded after 2 h incubation, then cells were washed three times with ice-cold PBS and transferred to the scintillation fluid. The drug efflux assay was performed after discarding the drug medium, then cells were washed three times with ice-cold PBS and treated with the medium containing peptide HX-12C or positive reversal agent. There were three different time points (30, 60, and 120 min) at which after changing the medium, the cells were washed three times with ice-cold PBS and collected and transferred to the scintillation fluid. The Packard TRI-CARB1 190`A liquid scintillation analyzer was used to measure radioactivity. A parallel well of cells for each group was set up for cell number counting at the end of assay for the purpose of data normalization.

[6] = system: ABCB1 in KB-C2 cells; test: [3H]-paclitaxel accumulation, KB-C2; assay type: cell-based, human; conditions: KB-C2 vs KB-3-1; after 2 hours of incubation; no inhibitor
Description: as §3

[7] = system: KB-3-1 cells; test: MTT cytotoxicity of peptides, parental KB-3-1; assay type: cell-based, human; conditions: KB-3-1 parental; modified MTT, 68 h + 4 h MTT, 570 nm; three independent experiments
Description: as §1, §2

[8] = target: T1, ABCB1 (Homo sapiens, UniProt P08183); test: ABCB1 ATPase assay (vanadate-sensitive); assay type: biochemical; conditions: insect cell membrane vesicles
T1 construct: purchased BD Biosciences, San Jose, CA, USA; host or cells: High Five insect cells (membrane vesicles)
T1 sequence (P08183 whole entry): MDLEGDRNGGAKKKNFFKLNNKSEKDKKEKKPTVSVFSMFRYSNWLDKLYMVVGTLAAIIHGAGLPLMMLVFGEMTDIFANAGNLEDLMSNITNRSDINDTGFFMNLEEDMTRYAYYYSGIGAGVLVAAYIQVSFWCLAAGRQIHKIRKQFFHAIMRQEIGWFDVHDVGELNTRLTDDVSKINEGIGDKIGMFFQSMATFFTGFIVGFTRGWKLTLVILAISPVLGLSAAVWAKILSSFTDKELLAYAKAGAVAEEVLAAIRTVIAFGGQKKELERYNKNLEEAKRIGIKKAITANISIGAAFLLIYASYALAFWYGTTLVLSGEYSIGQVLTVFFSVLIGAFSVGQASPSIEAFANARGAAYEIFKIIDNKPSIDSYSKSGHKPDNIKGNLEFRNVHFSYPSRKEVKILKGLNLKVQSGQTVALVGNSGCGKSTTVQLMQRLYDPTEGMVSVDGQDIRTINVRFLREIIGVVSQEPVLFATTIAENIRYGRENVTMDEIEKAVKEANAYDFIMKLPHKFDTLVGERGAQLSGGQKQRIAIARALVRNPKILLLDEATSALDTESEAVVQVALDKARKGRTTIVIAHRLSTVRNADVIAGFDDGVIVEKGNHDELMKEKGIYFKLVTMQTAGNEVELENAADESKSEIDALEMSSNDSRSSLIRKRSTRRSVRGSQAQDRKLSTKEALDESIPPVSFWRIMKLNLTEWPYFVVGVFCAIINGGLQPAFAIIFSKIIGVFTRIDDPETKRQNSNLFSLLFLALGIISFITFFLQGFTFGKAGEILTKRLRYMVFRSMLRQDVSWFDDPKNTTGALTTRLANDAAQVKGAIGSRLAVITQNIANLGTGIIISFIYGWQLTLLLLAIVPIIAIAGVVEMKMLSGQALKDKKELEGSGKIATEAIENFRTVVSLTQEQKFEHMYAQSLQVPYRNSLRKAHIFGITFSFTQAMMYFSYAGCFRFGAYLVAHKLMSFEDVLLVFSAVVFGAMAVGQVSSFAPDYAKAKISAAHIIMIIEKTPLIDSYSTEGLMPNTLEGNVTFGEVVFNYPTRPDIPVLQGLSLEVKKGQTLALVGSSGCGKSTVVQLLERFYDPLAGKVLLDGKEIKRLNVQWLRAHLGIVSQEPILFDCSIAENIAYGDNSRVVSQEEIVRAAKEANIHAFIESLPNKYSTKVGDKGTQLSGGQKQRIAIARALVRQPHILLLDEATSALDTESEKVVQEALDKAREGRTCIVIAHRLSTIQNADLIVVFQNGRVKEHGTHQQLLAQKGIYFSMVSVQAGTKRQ
Description: The ABCB1 ATPase activity was measured based on vanadate-sensitive principle as previously described ([Zhang et al., 2016]). The High Five insect cells membrane vesicles (BD Biosciences, San Jose, CA, USA) were first incubated for 5 min in ATPase assay buffer at 37°C with or without 0.3 mM vanadate. Then peptide HX-12C at a concentration of 0 to 40 μM was adding to the assay buffer and incubated at 37°C for 3 min. After adding 5 mM Mg-ATP with a total volume of 0.1 mL, the ATPase reaction was initiated until stopped by adding 100 μL 5% SDS solution after incubation at 37°C for 20 min. The amount of inorganic phosphate (IP) was used to calculate the ATPase activity of ABCB1, detected at 800 nm using a spectrophotometer.

`N.N.[Cl][Pt][Cl]` [Cisplatin, cisplatin] was tested, and the IC50 [1] was 1.79 ± 0.476 µM and the IC50 [2] was 2.21 ± 0.541 µM.

`COc1cccc2c1C(=O)c1c(O)c3c(c(O)c1C2=O)C[C@@](O)(C(=O)CO)C[C@@H]3O[C@H]1C[C@H](N)[C@H](O)[C@H](C)O1` [Doxorubicin, doxorubicin] was tested, and the IC50 [3] was 31.2 ± 5.41 µM, the IC50 ([1]; Homo sapiens) was 1.19 ± 0.279 µM and the “IC50 in ABCB1-overexpressing cells compared with parental cells” value [4] was “significantly higher than those of their parental cells”. It also gave an IC50 ([4]; Homo sapiens, KB-C2, read-out: IC50 of anticancer drug alone) of 69.8 ± 4.64 µM.

`CC(=O)O[C@H]1C(=O)[C@@]2(C)[C@H]([C@H](OC(=O)c3ccccc3)[C@]3(O)C[C@H](OC(=O)[C@H](O)[C@@H](NC(=O)c4ccccc4)c4ccccc4)C(C)=C1C3(C)C)[C@]1(OC(C)=O)CO[C@@H]1C[C@@H]2O` [Paclitaxel, paclitaxel] was tested, and the IC50 [3] was 30.9 ± 4.67 µM, the IC50 ([1]; Homo sapiens) was 0.002 ± 0.0007 µM and the IC50 ([2]; Homo sapiens) was 1.45 ± 0.121 µM.

`CC(=O)O[C@H]1C(=O)[C@@]2(C)[C@H]([C@H](OC(=O)c3ccccc3)[C@]3(O)C[C@H](OC(=O)[C@H](O)[C@@H](NC(=O)c4ccccc4)c4ccccc4)C(C)=C1C3(C)C)[C@]1(OC(C)=O)CO[C@@H]1C[C@@H]2O` [[^3H]-paclitaxel] was tested, and the “decrease of intracellular [3H]-paclitaxel (efflux)” value [5] was “about 50%” and the “level of [3H]-paclitaxel in KB-C2 lower than in KB-3-1” value [6] was “approximately 100 fold”.

In the case of FFRKVLKLIRKIWR [HX-12C], the IC50 [7] is reported as 7.53 µM, the “effect on ATPase activity of ABCB1” value ([8]; 0 to 40 μM) is reported as “stimulated ABCB1 ATPase activity; also recorded: can stimulate the ATPase activity of ABCB1 in a concentration-dependent manner” and the “maximal stimulation of ABCB1 ATPase activity” value ([8]; peptide 0 to 40 μM, 37°C, 20 min, vanadate-sensitive, three independent experiments) is reported as 4.7 fold of the basic activity.
